Reference: patent publication US20250289793A1, “MACROCYCLIC INHIBITORS OF ATP CITRATE LYASE” (Esperion Therapeutics, Inc., priority 2022, published 2025)

Experiments:
ACLY [1] = target: T1, ACLY (Homo sapiens (Human), UniProt P53396); assay: Human ACLY (hACLY) RF/MS activity assay; format: biochemical; conditions: 1 nM hACLY; 30 min pre-incubation; 15 μM Coenzyme A, 50 μM ATP, 50 μM citrate; CoA to Acetyl-CoA by RF/MS; read-out: RFMS IC50 GMean
Description: Compounds of the disclosure were evaluated for their efficacy in inhibiting hACLY using rapid fire mass spectrometry (RF/MS).
The final reaction volume for each compound was 20 μl and consisted of buffer (50 mM Hepes pH 8.0, 10 mM MgCl2, 0.003% BSA, 0.01% Brij35, 50 mM NaCl, 4 mM DTT) and 1 nM hACLY, EV12992, PP6692) using Greiner, 384 well small volume, deep well plates (Cat #784201). A two-fold dilution series with a top concentration of 10 μM was used to record a concentration response curve. Both the substrate (CoA) and product (Acetyl-CoA) were quantified, and given a ratio. […] The final DMSO-concentration was 1% (v/v). Compounds were pre-incubated for 30 min with the buffered enzyme solution at RT (20° C.), and substrate solution was added (final concentrations: 15 μM Coenzyme A, 50 μM ATP and 50 μM citrate) to initiate the enzyme reaction. The enzyme reaction was incubated for additional 30 min at RT. The reaction was quenched upon addition of 40 μl of 5% Formic acid in H2O and centrifuged (4350 rpm at 20° C. for 10 min).
Product formation was quantified using a RF/MS-based method based on mass change of CoA (substrate) to Acetyl-CoA (product).

ACLY [2] = target: T1, ACLY; assay: InCell Pulse assay (permeate HEK293 cells, bind to and stabilize ACLY); format: cell-based; conditions: HEK293 cells transfected with pICP-ACLY(FL)-ePL; 1 hour at 37° C., 55° C. heat pulse 10 minutes; read-out: InCell Pulse IC50 GMean
Description: HEK293 cells transfected for 24 hours with pICP-ACLY(FL)-ePL (3 μg DNA per T25 flask) using FuGene HD (Promega Corp.) were harvested and cryopreserved. On the day of the assay, the frozen transfected cells were thawed at 37° C., and the storage medium (DMEM with 2 mM L-Glutamine, 10% FBS and a final concentration of DMSO 10%) was exchanged with assay medium (OptiMEM; Gibco™, ThermoFischer Scientific). Compounds were 3-fold serially diluted in DMSO over 11-point concentration range. 100 nL of the corresponding dilutions were spotted into the assay plate (Greiner AG; 384 Well, PP, Small Volume, Deep Well, Natural, cat. no. 784201) followed by the addition of 20 μL of cell suspension adjusted with assay medium to 7.5E4 cells/mL. Subsequently, the plates were sealed and incubated for 1 hour at 37° C. Afterwards, the plates were fixed upside down in a rack and incubated in a 55° C. water bath for 10 minutes. Following this heat pulse step, plates were allowed to reach room temperature for 10 minutes and centrifuged for a few seconds at 1000 rpm and room temperature. 25 μL EA detection solution (working solution: 0.0167× InCell EA Reagent, 0.15× InCell Dilution Buffer, 0.167× InCell Lysis Buffer; 0.667× InCell Substrate Reagent; InCell Hunter Detection kit; Eurofins DiscoverX; cat. no. 96-0079) were added to each well. Afterwards, 42 μL were transferred from the assay plate to the detection plate (Corning Inc., 384-well Low Flange Black Flat Bottom Polystyrene NBS Microplate, cat. no. 3575), followed by an incubation for 1 hour at room temperature, a centrifugation step for 1 minute at 1000 rpm and the detection of the luminescence signal using an EnVision microplate reader (Perkin Elmer Inc.). Concentration-response curve-fitting and IC50 determination was performed using Evotec's in-house evaluation software APlus with a four-parameter non-linear regression fit model. Data was normalized to 0.5% (final concentration) DMSO as low/negative control and 1 μM (final concentration) NDI-094311 as high/positive control.

T1 sequence (P53396 whole entry): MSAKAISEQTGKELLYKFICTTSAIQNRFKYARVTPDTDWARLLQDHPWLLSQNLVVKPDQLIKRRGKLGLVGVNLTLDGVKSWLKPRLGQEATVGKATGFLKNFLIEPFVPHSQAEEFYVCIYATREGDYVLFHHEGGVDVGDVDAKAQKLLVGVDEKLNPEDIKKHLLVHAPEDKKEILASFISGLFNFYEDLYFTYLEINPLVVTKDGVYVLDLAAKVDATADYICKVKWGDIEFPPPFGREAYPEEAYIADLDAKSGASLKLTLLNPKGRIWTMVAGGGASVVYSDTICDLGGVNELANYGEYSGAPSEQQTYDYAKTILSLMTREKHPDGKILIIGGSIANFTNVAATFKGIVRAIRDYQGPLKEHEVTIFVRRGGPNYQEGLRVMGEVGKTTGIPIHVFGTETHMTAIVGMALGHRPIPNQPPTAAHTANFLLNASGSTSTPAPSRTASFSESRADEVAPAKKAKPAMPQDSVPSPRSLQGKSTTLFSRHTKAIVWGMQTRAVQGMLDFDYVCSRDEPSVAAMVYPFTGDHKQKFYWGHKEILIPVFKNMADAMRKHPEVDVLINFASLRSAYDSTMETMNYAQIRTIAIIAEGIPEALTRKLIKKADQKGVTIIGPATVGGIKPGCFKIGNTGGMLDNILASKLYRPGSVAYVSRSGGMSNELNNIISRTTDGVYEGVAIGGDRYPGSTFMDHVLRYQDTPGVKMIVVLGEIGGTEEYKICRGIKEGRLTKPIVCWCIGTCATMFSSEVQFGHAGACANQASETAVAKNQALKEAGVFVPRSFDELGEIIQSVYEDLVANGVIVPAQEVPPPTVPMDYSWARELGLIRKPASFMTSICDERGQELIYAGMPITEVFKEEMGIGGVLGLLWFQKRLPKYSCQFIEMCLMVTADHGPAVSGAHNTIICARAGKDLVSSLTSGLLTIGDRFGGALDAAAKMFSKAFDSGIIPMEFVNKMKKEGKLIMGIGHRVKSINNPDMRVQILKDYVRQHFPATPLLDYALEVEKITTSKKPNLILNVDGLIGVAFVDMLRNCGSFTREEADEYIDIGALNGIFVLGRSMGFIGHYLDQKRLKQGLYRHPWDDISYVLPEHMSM

| SMILES | IC50 (ACLY [1]) [nM] | IC50 (ACLY [2]) [nM] |
| --- | --- | --- |
| O=C1OCCc2ccccc2-c2cc(c(F)cc2F)NS(=O)(=O)c2cc1cc(Cl)c2O [Compound 21, 14-chloro-20,22-difluoro-15-hydroxy-10-oxa-17lambda6-thia-18-azatetracyclo[17.3.1.1^12,16.0^2,7]tetracosa-1(23),2,4,6,12,14,16(24),19,21-nonaene-11,17,17-trione] | < 20 | < 300 |
| O=C1OCCCc2c(sc3ccccc23)-c2cc(c(F)cc2F)NS(=O)(=O)c2cc1cc(Cl)c2O [Compound 22, 18-chloro-24,26-difluoro-19-hydroxy-14-oxa-3,21lambda6-dithia-22-azapentacyclo[21.3.1.1^16,20.0^2,10.0^4,9]octacosa-1(27),2(10),4,6,8,16,18,20(28),23,25-decaene-15,21,21-trione] | 20 to 100 | ≥ 50000 |
| O=C1OCCOc2ccccc2-c2ccc(F)c(c2)NS(=O)(=O)c2cc1cc(Cl)c2O [Compound 23, 15-chloro-21-fluoro-16-hydroxy-8,11-dioxa-18lambda6-thia-19-azatetracyclo[18.3.1.1^13,17.0^2,7]pentacosa-1(24),2,4,6,13,15,17(25),20,22-nonaene-12,18,18-trione] | < 20 | < 300 |
| O=C1OCCOc2ccc(Br)cc2-c2cc(c(F)cc2F)NS(=O)(=O)c2cc1cc(Cl)c2O [Compound 24, 4-bromo-15-chloro-21,23-difluoro-16-hydroxy-8,11-dioxa-18lambda6-thia-19-azatetracyclo[18.3.1.1^13,17.0^2,7]pentacosa-1(24),2,4,6,13,15,17(25),20,22-nonaene-12,18,18-trione] | 20 to 100 | < 300 |
| COc1ccc2cc1NS(=O)(=O)c1cc(cc(Cl)c1O)C(=O)OCCOc1ccccc1-2 [Compound 26, 15-chloro-16-hydroxy-21-methoxy-8,11-dioxa-18lambda6-thia-19-azatetracyclo[18.3.1.1^13,17.0^2,7]pentacosa-1(24),2,4,6,13,15,17(25),20,22-nonaene-12,18,18-trione] | < 20 | 300 to 1000 |
| O=C1OCCCn2c(cc3ccccc32)-c2cc(c(F)cc2F)NS(=O)(=O)c2cc1cc(Cl)c2O [Compound 27, 18-chloro-24,26-difluoro-19-hydroxy-14-oxa-21lambda6-thia-10,22-diazapentacyclo[21.3.1.1^16,20.0^2,10.0^4,9]octacosa-1(27),2,4,6,8,16,18,20(28),23,25-decaene-15,21,21-trione] | 20 to 100 | ≥ 50000 |
| N#Cc1ccc2c(c1)-c1cc(c(F)cc1F)NS(=O)(=O)c1cc(cc(Cl)c1O)C(=O)OCCO2 [Compound 28, 15-chloro-21,23-difluoro-16-hydroxy-12,18,18-trioxo-8,11-dioxa-18lambda6-thia-19-azatetracyclo[18.3.1.1^13,17.0^2,7]pentacosa-1(24),2,4,6,13,15,17(25),20,22-nonaene-4-carbonitrile] | 20 to 100 | 300 to 1000 |
| O=C1OCCCOc2cc(F)ccc2-c2cc(c(F)cc2F)NS(=O)(=O)c2cc1cc(Cl)c2O [Compound 29, 16-chloro-5,22,24-trifluoro-17-hydroxy-8,12-dioxa-19lambda6-thia-20-azatetracyclo[19.3.1^1,4,18.0^2,7]hexacosa-1(25),2,4,6,14,16,18(26),21,23-nonaene-13,19,19-trione] | 20 to 100 | 300 to 1000 |
| O=C1NCCc2ccccc2-c2cc(c(F)cc2F)NS(=O)(=O)c2cc1cc(Cl)c2O [Compound 30, 14-chloro-20,22-difluoro-15-hydroxy-17lambda6-thia-10,18-diazatetracyclo[17.3.1.1^12,16.0^2,7]tetracosa-1(23),2,4,6,12,14,16(24),19,21-nonaene-11,17,17-trione] | 20 to 100 | 1000 to 50000 |
| O=C1OCCOc2ccc(C3CC3)cc2-c2cc(c(F)cc2F)NS(=O)(=O)c2cc1cc(Cl)c2O [Compound 31, 15-chloro-4-cyclopropyl-21,23-difluoro-16-hydroxy-8,11-dioxa-18lambda6-thia-19-azatetracyclo[18.3.1.1^13,17.0^2,7]pentacosa-1(23),2,4,6,13(25),14,16,20(24),21-nonaene-12,18,18-trione] | 100 to 10000 | 1000 to 50000 |
| O=C1OCCOc2ncccc2-c2cc(c(F)cc2F)NS(=O)(=O)c2cc1cc(Cl)c2O [Compound 32, 15-chloro-21,23-difluoro-16-hydroxy-8,11-dioxa-18lambda6-thia-6,19-diazatetracyclo[18.3.1.1^13,17.0^2,7]pentacosa-1(24),2,4,6,13,15,17(25),20,22-nonaene-12,18,18-trione] | < 20 | < 300 |
| O=C1c2cc(Cl)c(O)c(c2)S(=O)(=O)Nc2cc(c(F)cc2F)-c2ccccc2OCC2CN1C2 [Compound 33, 16-chloro-22,24-difluoro-17-hydroxy-19,19-dioxo-8-oxa-19λ6-thia-12,20-diazapentacyclo[19.3.1.110,12.114,18.02,7]heptacosa-1(25),2,4,6,14,16,18(26),21,23-nonaen-13-one] | 20 to 100 | 300 to 1000 |
| O=C1OCc2cccc(c2)Oc2cc(c(F)cc2F)NS(=O)(=O)c2cc1cc(Cl)c2O [Compound 34, 12-chloro-4,6-difluoro-11-hydroxy-9,9-dioxo-2,16-dioxa-9λ6-thia-8-azatetracyclo[16.3.1.13,7.110,14]tetracosa-1(22),3,5,7(24),10(23),11,13,18,20-nonaen-15-one] | 100 to 10000 | ≥ 50000 |
| Cn1cc2cc(c1=O)S(=O)(=O)Nc1cc(c(F)cc1F)-c1ccccc1OCCOC2=O [Compound 35, 21,23-difluoro-15-methyl-18,18-dioxo-8,11-dioxa-18λ6-thia-15,19-diazatetracyclo[18.3.1.113,17.02,7]pentacosa-1(23),2(7),3,5,13,17(25),20(24),21-octaene-12,16-dione] | ≥ 10000 | ≥ 50000 |
| O=C1OCCOc2ccccc2-c2cc(c(F)cc2F)NS(=O)(=O)c2cc1c[nH]c2=O [Compound 36, 21,23-difluoro-18,18-dioxo-8,11-dioxa-18λ6-thia-15,19-diazatetracyclo[18.3.1.113,17.02,7]pentacosa-1(23),2(7),3,5,13,17(25),20(24),21-octaene-12,16-dione] | 20 to 100 | ≥ 50000 |
| O=C1OCCOc2ccc(F)cc2-c2ccc(F)c(c2)NS(=O)(=O)c2cc1c[nH]c2=O [Compound 37, 4,21-difluoro-18,18-dioxo-8,11-dioxa-18λ6-thia-15,19-diazatetracyclo[18.3.1.113,17.02,7]pentacosa-1(23),2(7),3,5,13,17(25),20(24),21-octaene-12,16-dione] | 100 to 10000 | ≥ 50000 |
| O=C1OCCOc2ccccc2-c2cc(c(F)cc2F)NS(=O)(=O)c2cc1cc(=O)[nH]2 [Compound 38, 21,23-difluoro-18,18-dioxo-8,11-dioxa-18λ6-thia-16,19-diazatetracyclo[18.3.1.113,17.02,7]pentacosa-1(23),2(7),3,5,13,17(25),20(24),21-octaene-12,15-dione] | 20 to 100 | ≥ 50000 |
| O=C1OCC2Cc3cccc(c3O2)-c2cc(c(F)cc2F)NS(=O)(=O)c2cc1cc(Cl)c2O (stereo not drawn) [Compound 39, 15-chloro-21,23-difluoro-16-hydroxy-18,18-dioxo-8,11-dioxa-18λ6-thia-19-azapentacyclo[18.3.1.16,9.113,17.02,7]hexacosa-1(23),2(7),3,5,13,15,17(25),20(24),21-nonaen-12-one] | < 20 | < 300 |
